Here are results for two compounds from PMC12508057, “Discovery of ETI41 and ETI60: novel selective endosomal Toll-like receptor inhibitors for the treatment of autoimmune diseases” (Experimental & Molecular Medicine, 2025).

In one experiment the target is T1, human TLR7 (Homo sapiens, UniProt Q9NYK1).
T1 construct: Fc; purchased R&D Systems
T1 sequence (Q9NYK1 27-839 limits assumed): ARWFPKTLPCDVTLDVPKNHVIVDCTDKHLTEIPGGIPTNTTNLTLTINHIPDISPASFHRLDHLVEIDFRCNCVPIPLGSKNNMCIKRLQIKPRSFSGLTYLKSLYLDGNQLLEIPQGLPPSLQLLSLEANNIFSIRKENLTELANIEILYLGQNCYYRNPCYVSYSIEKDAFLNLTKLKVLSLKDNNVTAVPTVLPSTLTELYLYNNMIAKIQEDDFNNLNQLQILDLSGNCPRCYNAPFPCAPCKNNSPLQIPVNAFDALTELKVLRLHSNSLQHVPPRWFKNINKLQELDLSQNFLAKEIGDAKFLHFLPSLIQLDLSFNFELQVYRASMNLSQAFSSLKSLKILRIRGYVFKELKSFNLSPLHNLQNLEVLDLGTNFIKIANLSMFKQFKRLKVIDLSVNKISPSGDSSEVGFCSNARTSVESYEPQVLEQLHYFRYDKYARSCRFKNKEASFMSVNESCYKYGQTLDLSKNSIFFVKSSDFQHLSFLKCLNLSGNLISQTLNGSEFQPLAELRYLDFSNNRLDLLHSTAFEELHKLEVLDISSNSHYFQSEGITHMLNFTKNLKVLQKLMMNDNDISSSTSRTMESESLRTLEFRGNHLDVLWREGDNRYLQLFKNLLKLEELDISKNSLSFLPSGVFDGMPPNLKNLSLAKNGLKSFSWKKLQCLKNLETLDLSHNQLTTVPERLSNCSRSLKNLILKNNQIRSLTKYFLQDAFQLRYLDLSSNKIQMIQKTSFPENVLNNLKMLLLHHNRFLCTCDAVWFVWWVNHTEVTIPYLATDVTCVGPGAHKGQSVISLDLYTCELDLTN
Description: SPR binding to TLR7. The settings on record: for SPR binding to TLR7: neutral pH 7.4 (early endosome). As for the experimental part: Surface plasmon resonance (SPR) analysis was conducted using an SR7500DC SPR System (Reichert) with a CMDH chip for human TLR7 and murine TLR9 (R&D Systems) and a Biacore T200 platform (Cytiva) with a CM5 chip for TLR9–ODN binding. The running buffer contained 0.5% DMSO and phosphate-buffered saline, and 50 mM NaOH was used for regeneration. ETI series compounds were serially diluted from 500 μM and tested for binding affinity. Binding curves were analyzed using Scrubber2 and Biacore T200 evaluation softwares. The dissociation constants (KD) were calculated as KD = kd/ka.
SPR confirmed the binding mechanisms of ETI41 and ETI60 with TLR7 and TLR9, respectively, under three conditions: (a) early endosome (pH 7.4), (b) late endosome without CpG (pH 5.5) and (c) late endosome with CpG (pH 5.5). (a) Both ETI41 and ETI60 were measured for parameters indicating binding affinity, including the KD value presented in Table 3, and were further analyzed under conditions (b) and (c), depending on the presence or absence of ligand, to explain the binding mechanism occurring in TLR9.
(In SPR one partner is held on a chip, and binding of the other changes the refractive index at the surface.)

The target of a further experiment is T2, TLR9 (Mus musculus, UniProt Q9EQU3).
T2 construct: RAW 264.7 and differentiated THP-1 cells were seeded into 96-well plates; endogenous in cells; host or cells: RAW 264.7
T2 sequence (Q9EQU3 26-1032): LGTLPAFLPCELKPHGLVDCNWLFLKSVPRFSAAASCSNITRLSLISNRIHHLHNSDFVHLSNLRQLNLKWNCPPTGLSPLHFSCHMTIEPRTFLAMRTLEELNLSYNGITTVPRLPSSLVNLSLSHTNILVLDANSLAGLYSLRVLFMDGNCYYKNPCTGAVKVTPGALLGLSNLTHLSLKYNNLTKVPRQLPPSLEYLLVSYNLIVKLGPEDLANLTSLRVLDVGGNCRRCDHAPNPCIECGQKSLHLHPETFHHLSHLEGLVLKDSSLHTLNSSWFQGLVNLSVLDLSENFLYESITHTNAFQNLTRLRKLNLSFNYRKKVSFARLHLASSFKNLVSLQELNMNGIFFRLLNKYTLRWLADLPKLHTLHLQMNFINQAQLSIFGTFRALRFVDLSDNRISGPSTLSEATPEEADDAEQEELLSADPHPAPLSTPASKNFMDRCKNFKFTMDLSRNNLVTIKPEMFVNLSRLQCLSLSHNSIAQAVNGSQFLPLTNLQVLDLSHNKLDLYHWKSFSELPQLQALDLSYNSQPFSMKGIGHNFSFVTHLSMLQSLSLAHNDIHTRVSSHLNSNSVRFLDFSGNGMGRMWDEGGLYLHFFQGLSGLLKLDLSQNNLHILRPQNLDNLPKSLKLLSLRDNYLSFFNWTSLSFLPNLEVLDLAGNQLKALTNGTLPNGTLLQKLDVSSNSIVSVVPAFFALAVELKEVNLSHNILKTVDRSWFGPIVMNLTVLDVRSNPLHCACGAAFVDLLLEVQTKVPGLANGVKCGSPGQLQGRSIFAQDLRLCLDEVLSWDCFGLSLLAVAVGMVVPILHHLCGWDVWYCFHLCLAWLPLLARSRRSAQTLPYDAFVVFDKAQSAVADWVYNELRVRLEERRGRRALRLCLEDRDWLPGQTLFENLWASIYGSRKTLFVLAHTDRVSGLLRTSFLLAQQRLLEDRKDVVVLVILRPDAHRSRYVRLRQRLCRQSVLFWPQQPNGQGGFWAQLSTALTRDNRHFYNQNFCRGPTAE
Description: Real-time quantitative PCR in BMDCs stimulated with ODN2395. The experiment is classed as cell-based. The following applies: primary BMDCs, 0.2 and 1 μM, ODN2395 1 μM.

pKd: −log10 of the molar value. Read-outs that look alike come from different tables or passages of the source.

Description for TLR9: Bone marrow cells from 8-week-old C57BL/6 mice (Jackson Laboratory) were cultured in RPMI 1640 with 20 ng/ml granulocyte-macrophage colony-stimulating factor (GM-CSF; Thermo Fisher Scientific) for 8 days. Bone marrow-derived dendritic cell (BMDC) purity was confirmed by fluorescence-activated cell sorting (FACS), showing 84% F4/80^− and CD11c^+ cells. […] Total mRNA was extracted using TRIzol reagent (Thermo Fisher Scientific) and reverse transcribed using the ReverTra Ace qPCR RT Kit (Toyobo). mRNA levels were determined using SYBR Green PCR Master Mix (Kapa Biosystems) and a CFX Connect RT-PCR System (Bio-Rad). Primers used were directed against IL-12p40, IFN-β, CD40 and GAPDH.
All experiments were independently conducted three times.

`Cc1cc2c(N)c3c(nc2n1CCCN(C)C)CCCCCC3` [ETI41]: on human TLR7, the pKd is 3.27 and the “SPR binding to TLR7” value was “clear binding affinity”. Besides, the kd on human TLR7 (Fc-TLR7, pH 7.4) was determined as 0.21 s⁻¹. In addition, the kon on human TLR7 (pH 7.4, read-out: ka) was 400 M⁻¹ s⁻¹. Also, the “Production of IL-12p40, IFN-β and CD40 (mRNA)” value at TLR9 is on record as “significantly inhibited”.
Take `COc1ccc2c3c(N)c4c(nc3n(CCCN(C)C)c2c1)CCCC4` [ETI60]: the kd at human TLR7 (Fc-TLR7, pH 7.4) was determined as 0.124 s⁻¹. Moreover, the negative-log Kd (pKd) on human TLR7 (Fc-TLR7, pH 7.4, read-out: KD) is 2.22. In addition, the kon at human TLR7 (Fc-TLR7, pH 7.4, read-out: ka) worked out at 20 M⁻¹ s⁻¹. The “SPR binding to TLR7” value at human TLR7 was “clear binding affinity”.

Broadly, the pKd is the negative decadic logarithm of the Kd, by convention in mol/L.
